Measured values reported in PubChem BioAssay (NCI).
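Cells were grown in 96-well plates and exposed to each compound for 48 hours at five concentrations; endpoints were interpolated linearly between bracketing concentrations, or set to the highest concentration if not reached. Abbreviation: GI50, concentration required for 50% inhibition of growth. TGI marks complete inhibition of growth.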

What follows are compounds tested on 786-0 renal (assay: inhibition of tumour cell growth, NCI panel, 48 h).
`NC(=S)N=Nc1c(O)cc(Nc2ccc(Cl)cc2Cl)c2ccccc12` showed a TGI of 26.3 µM.
`Cc1ccc(C(=O)c2[nH]c(Nc3cc(C)ccn3)c(C(=S)Nc3ccccc3)c2N)cc1` showed a TGI greater than 100 µM.
`CCC1(CC)C(=O)NC(=S)N=C1N` gave a TGI greater than 100 µM.
`CC1=NC(C)(C)N(O)C1(C)C` gave a TGI greater than 100 µM.
`O=c1oc2ccccc2c2nc3ccccc3cc12` was tested, and the TGI was 80.4 µM.
`CCCC[C@@H]1CCN2C[C@@H](O)[C@@H](O)[C@H]2[C@@H]1O` gave a TGI greater than 100 µM.
Work on `Clc1cccc(C2ON=C(c3ccccc3)N2C23CC4CC(CC(C4)C2)C3)c1Cl` (stereo not given) yielded a TGI greater than 10 µM.
Work on `CNc1ccc2c(c1)Cc1ccccc1-2` yielded a TGI greater than 100 µM.
`CCN(CC(=O)O)CC(=O)O` showed a TGI greater than 100 µM.
Work on `O=c1cc(-c2ccccc2F)[nH]c2cc3c(cc12)OCO3` yielded a TGI of 28.8 µM.
Work on `COC1OC2COC(C)(C)OC2C2OC(C)(C)OC12` (stereo not given) yielded a TGI of 52 µM.
With `CCNC(=S)N/N=C/c1ccccn1` the TGI was greater than 100 µM.
Work on `COc1ccc(CCCCl)c(C2=NCCc3ccccc32)c1` yielded a TGI greater than 100 µM.
Work on `O=C1NN=C(c2c[nH]c3ccccc23)CC1NCc1ccccc1` (stereo not given) yielded a TGI greater than 100 µM.
Work on `C=C1CC=CC(C)(C)C1C/C=C(\C)C(O)CBr` (stereo not given) yielded a TGI greater than 100 µM.
`O=C(NCCCNCCCCNCCCNC(=O)C(F)(F)F)C(F)(F)F` was tested, and the TGI was greater than 100 µM.
In the case of `O=C(O)c1cc2ccccc2c(S(=O)(=O)O)c1O`, the TGI is reported as greater than 100 µM.
Work on `CCOC(=O)c1[nH]c2nc(SC)nc(NC)c2c1N` yielded a TGI greater than 100 µM.
Work on `FC(F)=C(c1ccc(-c2ccc(Cl)cc2)cc1)C(F)(F)F` yielded a TGI of 37.8 µM.

These compounds were tested on RPMI-8226 leukemia (assay: inhibition of tumour cell growth, NCI panel, 48 h).
In the case of `CCOP(=O)(OCC)c1cc(-c2ccccc2)ccc1N`, the TGI is reported as greater than 100 µM.
With `COc1cc2c(cc1OCCCOc1cc3c(cc1OC)C(=O)N1CCC[C@H]1CN3)N=C[C@@H]1CCCN1C2=O` the GI50 was 0.156 µM and the TGI was 0.654 µM.
For `CCOC(=O)C1=C(C)NC(=O)N([N+](=O)[O-])C1c1ccccc1C(F)(F)F` (stereo not given), the TGI was 72.4 µM.
`Brc1ccc2c(c1)-c1nc3c(cc1CC2)CCc1ccc(Br)cc1-3` showed a TGI greater than 100 µM.
In the case of `OC(c1ccco1)C(F)(F)c1nc2ccccc2o1` (stereo not given), the TGI is reported as greater than 100 µM.
Compound `CN1c2ccccc2C(=O)NC12CCN(CC1COc3ccccc3O1)CC2` (stereo not given) has a TGI greater than 100 µM.
Compound `CCOC(=O)C(NC(=O)c1ccc(N=NN(C)C)cc1)C(C)C` (stereo not given) has a TGI greater than 100 µM.
Compound `COc1cc(CCCOC2OC(COC3OCC(O)C(O)C3O)C(O)C(O)C2O)cc2cc(-c3ccc4c(c3)OCO4)oc12` (stereo not given) has a TGI greater than 175 µM.
With `O=[N+]([O-])c1ccc2nc3c(nc2c1)-c1c2ccccc2cc2cccc-3c12` the TGI was 98.8 µM.
In the case of `COc1ccc(CN2C(=O)C(=O)N(C)C2=O)c2ccccc12`, the TGI is reported as greater than 10 µM.
Compound `C(=N/Nc1ccc(-c2nc3ccccc3[nH]2)cc1)/c1c(-c2ccccc2)[nH]c2ccccc12` has a TGI of 0.82 µM.
In the case of `CCOC(=O)c1c(NC(=S)Nc2ccc(C)cc2)sc2c1CCN(C)C2`, the TGI is reported as greater than 100 µM.
`COc1cc(/C=C/c2cc(=O)cc(/C=C/c3ccc(O)c(OC)c3)o2)ccc1O` showed a TGI greater than 20.7 µM.
Work on `c1ccc([P+](Cc2csnn2)(c2ccccc2)c2ccccc2)cc1` yielded a TGI greater than 100 µM.
Work on `NNC(=O)c1cccc2c1Oc1ccccc1S2` yielded a TGI greater than 100 µM.
For `COc1cc2c(cc1O)CC[n+]1cc3c(OC)c(OC)ccc3cc1-2`, the TGI was greater than 100 µM.
For `Nc1nc(Nc2ccc(OCc3cccc(F)c3)cc2)c2c(n1)[nH]c1ccc(O)cc12`, the GI50 was 2.16 µM and the TGI was 5.55 µM.
`CCC1(CC)C(=O)NC(=S)N=C1N` showed a TGI greater than 100 µM.
In the case of `CC1=NC(C)(C)N(O)C1(C)C`, the TGI is reported as greater than 100 µM.
With `O=c1oc2ccccc2c2nc3ccccc3cc12` the TGI was greater than 100 µM.
`CCCC[C@@H]1CCN2C[C@@H](O)[C@@H](O)[C@H]2[C@@H]1O` gave a TGI greater than 100 µM.
`O=C(NN1C(=O)CSC1c1ccc(Cl)c(Cl)c1)c1ccncc1` (stereo not given) gave a TGI greater than 100 µM.
`Clc1cccc(C2ON=C(c3ccccc3)N2C23CC4CC(CC(C4)C2)C3)c1Cl` (stereo not given) gave a TGI greater than 10 µM.
Work on `CNc1ccc2c(c1)Cc1ccccc1-2` yielded a TGI greater than 100 µM.
For `CCN(CC(=O)O)CC(=O)O`, the TGI was greater than 100 µM.
`Cc1cc(C)nc(NS(=O)(=O)c2ccc(Nc3c4ccccc4nc4c(C(=O)NCCO)cccc34)cc2)n1` was tested, and the TGI was 36.5 µM.
Work on `CCOC(=O)c1csc(NC(=O)CCCC#N)n1` yielded a TGI greater than 100 µM.
With `COC1OC2COC(C)(C)OC2C2OC(C)(C)OC12` (stereo not given) the TGI was 93.6 µM.
Compound `COc1ccc(CCCCl)c(C2=NCCc3ccccc32)c1` has a TGI of 21.7 µM.
For `O=C1NN=C(c2c[nH]c3ccccc23)CC1NCc1ccccc1` (stereo not given), the TGI was greater than 100 µM.
`C=C1CC=CC(C)(C)C1C/C=C(\C)C(O)CBr` (stereo not given) showed a TGI of 66.8 µM.
Work on `O=C(NCCCNCCCCNCCCNC(=O)C(F)(F)F)C(F)(F)F` yielded a TGI greater than 100 µM.
For `CCOC(=O)C(C)NC(=O)N(C)C12CC3CC(CC(C3)C1)C2` (stereo not given), the TGI was 422 µM.
For `O=C(O)c1cc2ccccc2c(S(=O)(=O)O)c1O`, the TGI was greater than 100 µM.
Work on `CCc1cc(=O)n(/C(C)=C/c2ccccc2)n1C` yielded a TGI greater than 100 µM.
`CCOC(=O)c1[nH]c2nc(SC)nc(NC)c2c1N` was tested, and the TGI was greater than 100 µM.
In the case of `FC(F)=C(c1ccc(-c2ccc(Cl)cc2)cc1)C(F)(F)F`, the TGI is reported as 51.8 µM.

Each compound was assayed on SNB-19 CNS (assay: inhibition of tumour cell growth, NCI panel, 48 h).
`CCOP(=O)(OCC)c1cc(-c2ccccc2)ccc1N` was tested, and the TGI was greater than 100 µM.
`COc1cc2c(cc1OCCCOc1cc3c(cc1OC)C(=O)N1CCC[C@H]1CN3)N=C[C@@H]1CCCN1C2=O` gave a TGI greater than 100 µM.
`CCOC(=O)C1=C(C)NC(=O)N([N+](=O)[O-])C1c1ccccc1C(F)(F)F` (stereo not given) gave a TGI greater than 100 µM.
In the case of `Brc1ccc2c(c1)-c1nc3c(cc1CC2)CCc1ccc(Br)cc1-3`, the TGI is reported as greater than 100 µM.
With `COP(=O)(CC(=O)C1OC(OCc2ccccc2)C(OCc2ccccc2)C(OCc2ccccc2)C1OCc1ccccc1)OC` (stereo not given) the TGI was greater than 100 µM.
Work on `OC(c1ccco1)C(F)(F)c1nc2ccccc2o1` (stereo not given) yielded a TGI greater than 100 µM.
`CN1c2ccccc2C(=O)NC12CCN(CC1COc3ccccc3O1)CC2` (stereo not given) showed a TGI greater than 100 µM.
`Cc1cn(C2CC(OC(c3ccccc3)(c3ccccc3)c3ccccc3)C(COC(c3ccccc3)(c3ccccc3)c3ccccc3)O2)c(=O)[nH]c1=O` (stereo not given) was tested, and the TGI was greater than 100 µM.
`CCOC(=O)C(NC(=O)c1ccc(N=NN(C)C)cc1)C(C)C` (stereo not given) gave a TGI greater than 100 µM.
`COc1cc(CCCOC2OC(COC3OCC(O)C(O)C3O)C(O)C(O)C2O)cc2cc(-c3ccc4c(c3)OCO4)oc12` (stereo not given) gave a TGI greater than 175 µM.
`Cc1cc2c(cc1Cl)SC(NNc1cnc3ccccc3n1)=NS2(=O)=O` was tested, and the TGI was greater than 100 µM.
With `O=C1c2c(c3c4ccc(Br)cc4oc3c3[nH]c4ccccc4c23)C(=O)N1O` the GI50 was 2.14 µM and the TGI was greater than 100 µM.
Compound `O=[N+]([O-])c1ccc2nc3c(nc2c1)-c1c2ccccc2cc2cccc-3c12` has a TGI greater than 54.5 µM.
Compound `COc1ccc(CN2C(=O)C(=O)N(C)C2=O)c2ccccc12` has a TGI greater than 10 µM.
`CCOC(=O)c1c(NC(=S)Nc2ccc(C)cc2)sc2c1CCN(C)C2` was tested, and the TGI was greater than 100 µM.
In the case of `Cc1ccc(-n2cc(-c3ccc(Cl)cc3)c3c2N=CN2NC(c4ccco4)=NC32)cc1` (stereo not given), the TGI is reported as 42.6 µM.
For `COc1cc(/C=C/c2cc(=O)cc(/C=C/c3ccc(O)c(OC)c3)o2)ccc1O`, the TGI was greater than 100 µM.
`c1ccc([P+](Cc2csnn2)(c2ccccc2)c2ccccc2)cc1` showed a TGI greater than 100 µM.
`NNC(=O)c1cccc2c1Oc1ccccc1S2` showed a TGI greater than 100 µM.
`COc1cc2c(cc1O)CC[n+]1cc3c(OC)c(OC)ccc3cc1-2` showed a TGI greater than 100 µM.
With `NC(=S)N=Nc1c(O)cc(Nc2ccc(Cl)cc2Cl)c2ccccc12` the TGI was 88.6 µM.
With `Cc1ccc(C(=O)c2[nH]c(Nc3cc(C)ccn3)c(C(=S)Nc3ccccc3)c2N)cc1` the TGI was greater than 100 µM.
Work on `Nc1nc(Nc2ccc(OCc3cccc(F)c3)cc2)c2c(n1)[nH]c1ccc(O)cc12` yielded a GI50 of 4.4 µM and a TGI of 21.7 µM.
For `CCC1(CC)C(=O)NC(=S)N=C1N`, the TGI was greater than 100 µM.
Compound `CC1=NC(C)(C)N(O)C1(C)C` has a TGI greater than 100 µM.
In the case of `O=c1oc2ccccc2c2nc3ccccc3cc12`, the TGI is reported as 70.3 µM.
Compound `CCCC[C@@H]1CCN2C[C@@H](O)[C@@H](O)[C@H]2[C@@H]1O` has a TGI greater than 100 µM.
Work on `O=C(NN1C(=O)CSC1c1ccc(Cl)c(Cl)c1)c1ccncc1` (stereo not given) yielded a TGI greater than 100 µM.
Compound `Clc1cccc(C2ON=C(c3ccccc3)N2C23CC4CC(CC(C4)C2)C3)c1Cl` (stereo not given) has a TGI greater than 10 µM.
For `CNc1ccc2c(c1)Cc1ccccc1-2`, the TGI was greater than 100 µM.
`CCN(CC(=O)O)CC(=O)O` gave a TGI greater than 100 µM.
Compound `Cc1cc(C)nc(NS(=O)(=O)c2ccc(Nc3c4ccccc4nc4c(C(=O)NCCO)cccc34)cc2)n1` has a TGI greater than 100 µM.
`CCOC(=O)c1csc(NC(=O)CCCC#N)n1` gave a TGI greater than 100 µM.
`O=c1cc(-c2ccccc2F)[nH]c2cc3c(cc12)OCO3` showed a TGI of 6.95 µM.
Compound `COC1OC2COC(C)(C)OC2C2OC(C)(C)OC12` (stereo not given) has a TGI of 54.4 µM.
`CCNC(=S)N/N=C/c1ccccn1` gave a TGI greater than 100 µM.
Work on `COc1ccc(CCCCl)c(C2=NCCc3ccccc32)c1` yielded a TGI greater than 100 µM.
With `O=C1NN=C(c2c[nH]c3ccccc23)CC1NCc1ccccc1` (stereo not given) the TGI was greater than 100 µM.
With `C=C1CC=CC(C)(C)C1C/C=C(\C)C(O)CBr` (stereo not given) the TGI was greater than 100 µM.
`CCOC(=O)C(C)NC(=O)N(C)C12CC3CC(CC(C3)C1)C2` (stereo not given) was tested, and the TGI was greater than 500 µM.
For `O=C(O)c1cc2ccccc2c(S(=O)(=O)O)c1O`, the TGI was greater than 100 µM.
Compound `O=c1c2cc3c(=O)n(CCc4ccccc4CO)c(=O)c3cc2c(=O)n1CCc1ccccc1CO` has a TGI greater than 100 µM.
For `CCc1cc(=O)n(/C(C)=C/c2ccccc2)n1C`, the TGI was greater than 100 µM.
`CCOC(=O)c1[nH]c2nc(SC)nc(NC)c2c1N` gave a TGI greater than 100 µM.
In the case of `FC(F)=C(c1ccc(-c2ccc(Cl)cc2)cc1)C(F)(F)F`, the TGI is reported as 36.9 µM.
